Test results from ChEMBL document CHEMBL4507296 (2021).

Assays:
[1] = target: Mu-type opioid receptor (Homo sapiens) (UniProt P35372); experiment: m-Opioid (human) CEREP ligand profiling; settings: Compound concentration 10.0 uM
[2] = target: Kappa-type opioid receptor (Rattus norvegicus) (UniProt P34975); experiment: k-Opioid (rat) CEREP ligand profiling; settings: Compound concentration 10.0 uM
[3] = target: AP2-associated protein kinase 1 (Homo sapiens) (UniProt Q2M2I8); settings: Compound concentration 1000.0 nM
[4] = tested on: Tyrosine-protein kinase ABL1 (Homo sapiens), P00519 [F317L]; settings: Compound concentration 1000.0 nM
[5] = target: Activin receptor type-1B (Homo sapiens) (UniProt P36896); settings: Compound concentration 1000.0 nM
[6] = target: 5'-AMP-activated protein kinase catalytic subunit alpha-1 (Homo sapiens) (UniProt Q13131); settings: Compound concentration 1000.0 nM
[7] = target: Serine/threonine-protein kinase B-raf (Homo sapiens) (UniProt P15056); settings: Compound concentration 1000.0 nM
[8] = target: Calcium/calmodulin-dependent protein kinase type II subunit alpha (Homo sapiens) (UniProt Q9UQM7); settings: Compound concentration 1000.0 nM
[9] = target: Cyclin-dependent kinase 13 (Homo sapiens) (UniProt Q14004); settings: Compound concentration 1000.0 nM
[10] = target: Macrophage colony-stimulating factor 1 receptor (Homo sapiens) (UniProt P07333); settings: Compound concentration 1000.0 nM
[11] = target: Casein kinase I isoform epsilon (Homo sapiens) (UniProt P49674); settings: Compound concentration 1000.0 nM
[12] = target: Epithelial discoidin domain-containing receptor 1 (Homo sapiens) (UniProt Q08345); settings: Compound concentration 1000.0 nM
[13] = target: Myotonin-protein kinase (Homo sapiens) (UniProt Q09013); settings: Compound concentration 1000.0 nM
[14] = target: Ephrin type-A receptor 5 (Homo sapiens) (UniProt P54756); settings: Compound concentration 1000.0 nM
[15] = target: Ephrin type-B receptor 4 (Homo sapiens) (UniProt P54760); settings: Compound concentration 1000.0 nM
[16] = target: Homeodomain-interacting protein kinase 1 (Homo sapiens) (UniProt Q86Z02); settings: Compound concentration 1000.0 nM
[17] = target: Inhibitor of nuclear factor kappa-B kinase subunit epsilon (Homo sapiens) (UniProt Q14164); settings: Compound concentration 1000.0 nM
[18] = target: Interleukin-1 receptor-associated kinase 1 (Homo sapiens) (UniProt P51617); settings: Compound concentration 1000.0 nM
[19] = target: Serine/threonine-protein kinase LATS1 (Homo sapiens) (UniProt O95835); settings: Compound concentration 1000.0 nM
[20] = target: Serine/threonine-protein kinase 10 (Homo sapiens) (UniProt O94804); settings: Compound concentration 1000.0 nM
[21] = target: Tyrosine-protein kinase Lyn (Homo sapiens) (UniProt P07948); settings: Compound concentration 1000.0 nM
[22] = target: MAP kinase-activated protein kinase 5 (Homo sapiens) (UniProt Q8IW41); settings: Compound concentration 1000.0 nM
[23] = target: Serine/threonine-protein kinase MARK2 (Homo sapiens) (UniProt Q7KZI7); settings: Compound concentration 1000.0 nM
[24] = target: Microtubule-associated serine/threonine-protein kinase 1 (Homo sapiens) (UniProt Q9Y2H9); settings: Compound concentration 1000.0 nM
[25] = target: Dual specificity mitogen-activated protein kinase kinase 3 (Homo sapiens) (UniProt P46734); settings: Compound concentration 1000.0 nM
[26] = target: Serine/threonine-protein kinase mTOR (Homo sapiens) (UniProt P42345); settings: Compound concentration 1000.0 nM
[27] = target: Serine/threonine-protein kinase Nek6 (Homo sapiens) (UniProt Q9HC98); settings: Compound concentration 1000.0 nM
[28] = target: Cyclin-dependent kinase 18 (Homo sapiens) (UniProt Q07002); settings: Compound concentration 1000.0 nM
[29] = target: Calcium-dependent protein kinase 1 (Plasmodium falciparum) (UniProt P62344); settings: Compound concentration 1000.0 nM
[30] = target: Phosphorylase b kinase gamma catalytic chain, skeletal muscle/heart isoform (Homo sapiens) (UniProt Q16816); settings: Compound concentration 1000.0 nM
[31] = target: Phosphatidylinositol 4,5-bisphosphate 3-kinase catalytic subunit alpha isoform (Homo sapiens) (UniProt P42336); settings: Compound concentration 1000.0 nM
[32] = tested on: Phosphatidylinositol 4,5-bisphosphate 3-kinase catalytic subunit alpha isoform (Homo sapiens), P42336 [E542K]; settings: Compound concentration 1000.0 nM
[33] = tested on: Phosphatidylinositol 4,5-bisphosphate 3-kinase catalytic subunit alpha isoform (Homo sapiens), P42336 [H1047L]; settings: Compound concentration 1000.0 nM
[34] = target: Phosphatidylinositol 4,5-bisphosphate 3-kinase catalytic subunit gamma isoform (Homo sapiens) (UniProt P48736); settings: Compound concentration 1000.0 nM
[35] = target: Serine/threonine-protein kinase D3 (Homo sapiens) (UniProt O94806); settings: Compound concentration 1000.0 nM
[36] = target: Serine/threonine-protein kinase PRP4 homolog (Homo sapiens) (UniProt Q13523); settings: Compound concentration 1000.0 nM
[37] = target: Ribosomal protein S6 kinase alpha-4 (Homo sapiens) (UniProt O75676); settings: Compound concentration 1000.0 nM
[38] = target: Ribosomal protein S6 kinase alpha-2 (Homo sapiens) (UniProt Q15349); settings: Compound concentration 1000.0 nM
[39] = target: SRSF protein kinase 1 (Homo sapiens) (UniProt Q96SB4); settings: Compound concentration 1000.0 nM
[40] = target: SRSF protein kinase 2 (Homo sapiens) (UniProt P78362); settings: Compound concentration 1000.0 nM
[41] = target: Tyrosine-protein kinase Tec (Homo sapiens) (UniProt P42680); settings: Compound concentration 1000.0 nM
[42] = target: Serine/threonine-protein kinase WNK3 (Homo sapiens) (UniProt Q9BYP7); settings: Compound concentration 1000.0 nM
[43] = target: Serine/threonine-protein kinase 25 (Homo sapiens) (UniProt O00506); settings: Compound concentration 1000.0 nM
[44] = target: Sodium-dependent serotonin transporter (Homo sapiens) (UniProt P31645); settings: Compound concentration 10.0 uM

Phosphorylase b kinase gamma catalytic chain, skeletal muscle/heart isoform (Homo sapiens), sequence (Q16816 whole entry, looked up, canonical isoform): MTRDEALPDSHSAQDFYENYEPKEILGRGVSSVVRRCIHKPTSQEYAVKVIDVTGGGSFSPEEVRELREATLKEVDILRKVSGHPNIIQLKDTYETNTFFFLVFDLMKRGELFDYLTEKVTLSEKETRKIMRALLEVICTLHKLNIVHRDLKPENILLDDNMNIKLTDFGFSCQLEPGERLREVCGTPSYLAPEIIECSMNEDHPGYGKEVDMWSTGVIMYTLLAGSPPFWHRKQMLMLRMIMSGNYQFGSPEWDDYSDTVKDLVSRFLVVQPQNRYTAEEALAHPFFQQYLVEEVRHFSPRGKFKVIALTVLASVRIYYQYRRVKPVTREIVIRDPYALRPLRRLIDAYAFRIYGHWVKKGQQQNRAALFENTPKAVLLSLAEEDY
Phosphatidylinositol 4,5-bisphosphate 3-kinase catalytic subunit alpha isoform (Homo sapiens), sequence (P42336 whole entry, canonical isoform): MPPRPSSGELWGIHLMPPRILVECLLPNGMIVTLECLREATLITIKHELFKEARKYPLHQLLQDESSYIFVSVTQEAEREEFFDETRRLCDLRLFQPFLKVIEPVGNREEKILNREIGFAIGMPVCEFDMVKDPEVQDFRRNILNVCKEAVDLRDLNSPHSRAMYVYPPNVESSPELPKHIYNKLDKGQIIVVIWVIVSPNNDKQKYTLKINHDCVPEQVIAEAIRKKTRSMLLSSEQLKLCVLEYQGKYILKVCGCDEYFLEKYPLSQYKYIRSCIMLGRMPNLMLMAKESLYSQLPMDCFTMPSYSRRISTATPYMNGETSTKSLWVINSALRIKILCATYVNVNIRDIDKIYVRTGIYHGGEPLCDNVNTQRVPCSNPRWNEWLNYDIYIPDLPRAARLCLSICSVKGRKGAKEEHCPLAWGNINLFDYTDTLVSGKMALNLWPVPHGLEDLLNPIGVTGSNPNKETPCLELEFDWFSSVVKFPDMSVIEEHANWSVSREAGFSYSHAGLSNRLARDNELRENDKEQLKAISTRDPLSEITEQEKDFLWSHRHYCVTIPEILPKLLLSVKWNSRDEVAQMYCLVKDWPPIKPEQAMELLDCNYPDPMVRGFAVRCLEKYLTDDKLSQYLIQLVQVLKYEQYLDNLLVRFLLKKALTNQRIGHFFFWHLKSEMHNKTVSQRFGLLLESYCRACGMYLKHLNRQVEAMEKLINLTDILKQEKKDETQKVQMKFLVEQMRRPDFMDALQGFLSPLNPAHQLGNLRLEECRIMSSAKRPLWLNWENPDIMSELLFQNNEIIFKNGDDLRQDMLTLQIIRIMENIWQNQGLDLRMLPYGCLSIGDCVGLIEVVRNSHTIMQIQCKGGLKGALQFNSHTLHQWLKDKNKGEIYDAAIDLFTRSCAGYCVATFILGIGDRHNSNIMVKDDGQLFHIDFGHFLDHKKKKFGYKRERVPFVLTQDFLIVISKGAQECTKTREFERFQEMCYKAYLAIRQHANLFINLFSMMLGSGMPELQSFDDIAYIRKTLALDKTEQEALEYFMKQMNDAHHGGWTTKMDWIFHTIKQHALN
Tyrosine-protein kinase Lyn (Homo sapiens), sequence (P07948 2-512 limits assumed): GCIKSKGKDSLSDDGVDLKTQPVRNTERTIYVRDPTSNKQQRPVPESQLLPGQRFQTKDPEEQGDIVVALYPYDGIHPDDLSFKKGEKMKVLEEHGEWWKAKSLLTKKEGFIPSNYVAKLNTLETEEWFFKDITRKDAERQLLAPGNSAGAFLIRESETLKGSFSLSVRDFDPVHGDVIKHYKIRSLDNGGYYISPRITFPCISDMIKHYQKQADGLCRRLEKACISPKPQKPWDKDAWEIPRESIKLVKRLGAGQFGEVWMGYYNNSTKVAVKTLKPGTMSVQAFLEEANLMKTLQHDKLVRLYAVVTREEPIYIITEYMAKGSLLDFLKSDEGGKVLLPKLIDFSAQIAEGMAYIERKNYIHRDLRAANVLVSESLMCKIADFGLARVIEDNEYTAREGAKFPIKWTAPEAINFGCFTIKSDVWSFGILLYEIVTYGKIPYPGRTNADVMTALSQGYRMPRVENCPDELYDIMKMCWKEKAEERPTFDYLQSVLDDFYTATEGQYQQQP
Macrophage colony-stimulating factor 1 receptor (Homo sapiens), sequence (P07333 whole entry, canonical isoform): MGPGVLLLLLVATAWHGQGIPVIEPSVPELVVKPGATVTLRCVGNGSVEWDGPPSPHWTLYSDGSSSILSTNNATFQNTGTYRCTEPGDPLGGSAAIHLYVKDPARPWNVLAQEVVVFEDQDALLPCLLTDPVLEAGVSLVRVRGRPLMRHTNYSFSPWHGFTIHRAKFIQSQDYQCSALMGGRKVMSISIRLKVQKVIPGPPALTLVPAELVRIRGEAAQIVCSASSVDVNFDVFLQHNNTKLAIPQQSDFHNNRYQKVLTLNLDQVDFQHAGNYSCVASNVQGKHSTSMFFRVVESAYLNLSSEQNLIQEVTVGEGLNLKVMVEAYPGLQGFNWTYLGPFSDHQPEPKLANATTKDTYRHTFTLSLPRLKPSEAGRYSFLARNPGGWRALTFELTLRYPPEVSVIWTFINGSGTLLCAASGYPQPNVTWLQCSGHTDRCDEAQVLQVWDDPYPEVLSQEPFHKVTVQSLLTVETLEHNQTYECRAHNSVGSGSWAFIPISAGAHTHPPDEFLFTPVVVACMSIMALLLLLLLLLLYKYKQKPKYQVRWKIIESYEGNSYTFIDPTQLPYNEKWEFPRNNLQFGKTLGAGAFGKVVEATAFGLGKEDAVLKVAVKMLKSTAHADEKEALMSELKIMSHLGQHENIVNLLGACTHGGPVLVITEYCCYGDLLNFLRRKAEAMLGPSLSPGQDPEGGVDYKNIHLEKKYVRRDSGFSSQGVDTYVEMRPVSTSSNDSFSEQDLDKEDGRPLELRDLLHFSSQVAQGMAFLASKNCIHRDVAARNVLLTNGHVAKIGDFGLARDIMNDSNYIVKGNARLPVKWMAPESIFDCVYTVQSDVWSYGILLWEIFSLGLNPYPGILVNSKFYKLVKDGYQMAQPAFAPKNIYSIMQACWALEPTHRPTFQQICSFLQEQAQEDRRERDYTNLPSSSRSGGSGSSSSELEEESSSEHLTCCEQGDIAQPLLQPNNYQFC
Microtubule-associated serine/threonine-protein kinase 1 (Homo sapiens), sequence (Q9Y2H9 whole entry, looked up): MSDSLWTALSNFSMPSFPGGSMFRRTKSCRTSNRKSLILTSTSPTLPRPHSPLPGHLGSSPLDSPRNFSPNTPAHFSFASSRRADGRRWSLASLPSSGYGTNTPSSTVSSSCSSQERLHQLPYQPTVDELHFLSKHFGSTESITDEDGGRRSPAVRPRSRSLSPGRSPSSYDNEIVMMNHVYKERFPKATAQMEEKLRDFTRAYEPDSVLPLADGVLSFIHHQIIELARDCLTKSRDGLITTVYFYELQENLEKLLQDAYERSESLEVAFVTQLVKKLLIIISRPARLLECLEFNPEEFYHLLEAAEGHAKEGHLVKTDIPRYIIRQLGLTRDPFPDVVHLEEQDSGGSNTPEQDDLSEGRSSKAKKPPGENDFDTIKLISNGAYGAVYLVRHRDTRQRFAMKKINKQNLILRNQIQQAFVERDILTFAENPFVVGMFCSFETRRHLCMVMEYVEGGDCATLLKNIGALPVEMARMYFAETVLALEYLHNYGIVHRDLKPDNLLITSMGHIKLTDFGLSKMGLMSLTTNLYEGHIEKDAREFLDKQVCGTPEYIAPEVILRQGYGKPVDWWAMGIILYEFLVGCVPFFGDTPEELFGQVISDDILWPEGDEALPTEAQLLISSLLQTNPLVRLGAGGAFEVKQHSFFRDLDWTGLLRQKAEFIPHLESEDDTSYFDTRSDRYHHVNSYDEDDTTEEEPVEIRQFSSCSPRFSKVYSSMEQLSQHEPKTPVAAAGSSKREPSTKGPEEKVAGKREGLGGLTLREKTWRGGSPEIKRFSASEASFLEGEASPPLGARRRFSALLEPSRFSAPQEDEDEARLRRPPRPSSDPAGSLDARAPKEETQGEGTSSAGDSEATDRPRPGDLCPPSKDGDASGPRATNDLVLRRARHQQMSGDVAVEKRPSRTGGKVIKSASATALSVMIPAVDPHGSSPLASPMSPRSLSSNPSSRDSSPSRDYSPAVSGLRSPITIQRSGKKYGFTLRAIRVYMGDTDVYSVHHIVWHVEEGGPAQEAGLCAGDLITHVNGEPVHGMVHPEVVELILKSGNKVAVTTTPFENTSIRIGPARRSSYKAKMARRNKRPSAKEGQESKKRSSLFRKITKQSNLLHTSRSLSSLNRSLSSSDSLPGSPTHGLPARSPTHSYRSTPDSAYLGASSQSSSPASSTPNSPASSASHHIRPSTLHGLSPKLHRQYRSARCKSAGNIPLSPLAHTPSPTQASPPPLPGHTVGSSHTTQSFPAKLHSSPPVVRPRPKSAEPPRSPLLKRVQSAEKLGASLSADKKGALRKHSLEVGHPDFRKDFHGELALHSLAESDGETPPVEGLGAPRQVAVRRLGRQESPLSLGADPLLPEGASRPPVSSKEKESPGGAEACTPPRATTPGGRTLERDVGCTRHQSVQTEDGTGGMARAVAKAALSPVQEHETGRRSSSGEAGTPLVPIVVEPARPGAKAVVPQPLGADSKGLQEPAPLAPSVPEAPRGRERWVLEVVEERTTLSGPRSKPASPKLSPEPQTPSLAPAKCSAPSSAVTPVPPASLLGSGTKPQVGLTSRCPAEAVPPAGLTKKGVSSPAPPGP
Serine/threonine-protein kinase Nek6 (Homo sapiens), sequence (Q9HC98 whole entry): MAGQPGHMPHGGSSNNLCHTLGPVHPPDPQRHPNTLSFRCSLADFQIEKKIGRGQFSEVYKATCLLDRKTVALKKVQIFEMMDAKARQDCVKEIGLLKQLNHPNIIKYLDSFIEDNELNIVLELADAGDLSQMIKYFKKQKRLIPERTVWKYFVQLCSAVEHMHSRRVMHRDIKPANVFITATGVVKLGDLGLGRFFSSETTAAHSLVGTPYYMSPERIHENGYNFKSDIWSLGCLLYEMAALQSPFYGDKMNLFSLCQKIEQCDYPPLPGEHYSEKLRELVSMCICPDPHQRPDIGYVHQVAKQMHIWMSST

`C[C@H](c1ccc(F)cc1)N(Cc1cccc(C(=O)O)c1)C(=O)c1cnc2ccccc2c1` [PF-05105679] showed an inhibition [1] of 25%, an inhibition [2] of 20% and a residual activity [3] of 100%. The residual activity [4] was 91%, the residual activity [5] was 100% and the residual activity [6] was 100%. The residual activity [7] was 90%, the residual activity [8] was 97% and the residual activity [9] was 98%. The residual activity [10] was 100%, the residual activity [11] was 100% and the residual activity [12] was 100%. The residual activity [13] was 88%, the residual activity [14] was 98% and the residual activity [15] was 100%. For the same molecule, the residual activity [16] was 100%, the residual activity [17] was 79% and the residual activity [18] was 89%. The residual activity [19] was 100%, the residual activity [20] was 89% and the residual activity [21] was 100%. For the same molecule, the residual activity [22] was 96%, the residual activity [23] was 80% and the residual activity [24] was 100%. The residual activity [25] was 91%, the residual activity [26] was 93% and the residual activity [27] was 92%. It also gave a residual activity [28] of 100%, a residual activity [29] of 100% and a residual activity [30] of 88%. For the same molecule, the residual activity [31] was 100%, the residual activity [32] was 49% and the residual activity [33] was 100%. For the same molecule, the residual activity [34] was 100%, the residual activity [35] was 100% and the residual activity [36] was 100%. The residual activity [37] was 100%, the residual activity [38] was 100% and the residual activity [39] was 95%. For the same molecule, the residual activity [40] was 98%, the residual activity [41] was 80% and the residual activity [42] was 87%. The residual activity [43] was 100% and the inhibition [44] was 23.4%.
